Data taken from patent US20170056379A1, “METHOD OF USING DOPAMINE REUPTAKE INHIBITORS AND THEIR ANALOGS FOR TREATING DIABETES SYMPTOMS AND DELAYING OR […]-[…]” (CALIPER LIFE SCIENCES, INC., priority 2009, published 2017).
“Also recorded” adds a separate entry of the source.

Key:
Type in all cases: in vivo
[1] = test system: FVB strain of mice; test: Mediation of hyperglycemic conditions: blood glucose and body mass in high fat diet mice; conditions: 10 mg/kg p.o. daily six days a week, after 4 weeks of treatment
Source text: Mediation of hyperglycemic conditions—FVB strain of mice were used in this study. In our previous study (unpublished), we noted that the FVB strain provides a broad phenotypic window for most parameters of human diabetic conditions similar to C57B1/6. For instance, there was a noted weight gain and obesity induced with high and intermediate fat diets. A persistent high fat diet induces relatively robust hyperglycemic conditions and inefficient glucose disposal but with little noted effects on metabolic rate. There is little circadian impact and changes in activity patterns with the high fat diet.
Twenty FVB mice (˜12 weeks of age) were randomly separated into two groups (n=10). One group (of ten mice) was fed a high fat diet (ResearchDiets, New Brunswick, N.J., and Cat. #D12492); with the following caloric components: 20 percent protein; 20 percent carbohydrate; and 60 percent fat; 5.24 kcal/gram. Another group was fed with regular rodent chow (Labdiet, Richmond, Ind., product code 5010); 28.7 percent protein, 12.7 percent fat, and 58.6 percent carbohydrate; 3.43 kcal/gram. After seven-weeks, blood glucose levels (and body weight) of the two different groups were examined. […] The group fed on the high fat diet clearly developed a hyperglycemic condition. The difference in body mass was also clearly significant.
Each of the two groups were then further separated into two subgroups (n=5). For the high fat diet group, the separation of the animals from the hyperglycemic/high fat diet group into two sub-groups was normalized based on the blood glucose levels. One group, designated as high fat-D, were treated with a dopamine reuptake inhibitor (3-(phenylpropyl)-sydnonimine-N-phenylcarbamoyl), the other group, designated as high fat-N were treated with vehicle (30% captosol, 1% Tween (Tween® 20, a polyoxyethylene sorbitan esters available from Sigma) and 1% 1N HCl in H2O; hereafter referred to as vehicle). For the normal chow group, the separation was random but similarly designated and separated into drug treated (Normal-D) and vehicle controls (Normal-N). […]

[2] = test system: FVB strain of mice; test: Home-cage health and behavior; conditions: high-fat-diet-drug-treated group, in contrast to the high-fat-diet-vehicle-treated group
Source text: Home-cage health and behavior—This is not a […] measurement but the behavior pattern that we noticed during the study. All 4 groups of animals were housed in pairs or trios according to stratification of either treated with drug or vehicle. For three of the 4 groups, e.g. Normal Diet-drug-treated, Normal Diet-vehicle-treated, and high-fat-diet-drug-treated, the animals appear to be healthy, were docile to handlers and non-aggressive with each other. However the high-fat-diet-vehicle-treated group started to develop underbelly lesions, bite marks, and aggressive behavior towards littermates. This pattern of behavior became especially noticeable after overnight fasting (in order for fasting blood glucose level). In fact, after the above mentioned second examination (examination of fasting blood glucose level after 4 weeks of drug treatment), one of the mice in the high-fat-diet-vehicle-treated group had to be euthanized due to wounds and lesions. The remainders (of the four mice) were subsequently housed individually. These changes of behavior patterns and or behavior oddities are likely indicative of neurological changes under pre-diabetic or diabetic conditions.

[3] = test system: FVB strain of mice; test: Mediation of diabetic-induced hypoalgesia (Hot-plate assay); conditions: for (Mean − Mean0)/Std0 (Wilcoxon rank sums, hot plate latency) / Score Mean (Wilcoxon rank sums, hot plate latency) / Score Sum (Wilcoxon rank sums, hot plate latency): hot plate 48° C.
Method: Mediation of diabetic-induced hypoalgesia (Hot-plate assay)—Mice were brought to the testing room and acclimatized for an hour before test. Pain reflexes in response to a thermal stimulus are measured using a Hot Plate Analgesia Meter from Harvard Apparatus. The plate surface was maintained at 48° C. that was measured by a built-in digital thermometer. Mice were placed on the hot plate which is surrounded by a clear acrylic cage with the Start/Stop trigger on the timer. […] For each subject, the test was performed three times with about 30 minute rest between tests. Animals were tested one at a time and were not habituated to the apparatus prior to testing.

[4] = test system: FVB strain of mice; test: Mediation of diabetic hypoalgesia (Tail-flick assay); conditions: for (Mean − Mean0)/Std0 (Wilcoxon rank sums, tail-flick latency) / Score Mean (Wilcoxon rank sums, tail-flick latency) / Score Sum (Wilcoxon rank sums, tail-flick latency): 5.0 mg/kg p.o. an hour before test
Method: Mediation of diabetic hypoalgesia (Tail-flick assay)—Mice were brought to the testing room, acclimatized and administered 3-(phenylpropyl)-sydnonimine-N-phenylcarbamoyl (5.0 mg/kg; p.o.) an hour before test. Pain reflexes in response to a thermal stimulus are measured using a tail-flick analgesic meter with a built in stop-timer from Columbus Instruments. Latencies to respond for the thermal stimulation is recorder. For each subject, the test was performed three times with about 30 minute rests between tests. Animals are tested one at a time and are not habituated to the apparatus prior to testing.

CC(Cc1ccccc1)[n+]1cc([N-]C(=O)Nc2ccccc2)on1 (centres unmarked) [3-(phenylpropyl)-sydnonimine-N-phenylcarbamoyl]
body mass of high fat diet groups compared with Normal Diet groups [1]: still noticeably higher than the groups on the Normal Diet regardless of the drug exposure | blood glucose levels of drug treated groups compared with respective sham treated groups ([1]; high fat and Normal Diet groups): lower levels of blood glucose than their respective sham treated groups | blood glucose levels of high fat diet drug treated mice compared with Normal Diet group ([1]; high fat diet, 10 mg/kg): indistinguishable from the group of mice fed a Normal Diet; also recorded: no discernable differences | home-cage health and behavior [2]: remained healthy, docile and playful with littermates | thermal responses of high-fat-diet-drug-treated subjects compared with Normal Diet-vehicle-treated (hot plate) ([3]; FIG. 3): virtually no difference was observed | effect on hypoalgesic conditions induced by diabetic conditions (hot plate test) ([3]; FIG. 3, high fat diet mice): attenuated the hypoalgesic | (Mean − Mean0)/Std0 (Wilcoxon rank sums, hot plate latency) ([3]; High Fat-D group): −1.528 | Score Mean (Wilcoxon rank sums, hot plate latency) ([3]; High Fat-D group): 6.600 | Score Sum (Wilcoxon rank sums, hot plate latency) ([3]; High Fat-D group): 33.000 | (Mean − Mean0)/Std0 (Wilcoxon rank sums, hot plate latency) ([3]; Normal-D group): 1.898 | Score Mean (Wilcoxon rank sums, hot plate latency) ([3]; Normal-D group): 14.200 | Score Sum (Wilcoxon rank sums, hot plate latency) ([3]; Normal-D group): 71.000 | thermal responses of high-fat-diet-drug-treated subjects compared with Normal Diet-vehicle-treated (tail-flick) ([4]; FIG. 4): virtually no difference was observed | effect on hypoalgesic conditions induced by diabetic conditions (tail-flick test) ([4]; FIG. 4, high fat diet mice): attenuated the hypoalgesic | (Mean − Mean0)/Std0 (Wilcoxon rank sums, tail-flick latency) ([4]; High Fat-D group): −2.268 | Score Mean (Wilcoxon rank sums, tail-flick latency) ([4]; High Fat-D group): 5.000 | Score Sum (Wilcoxon rank sums, tail-flick latency) ([4]; High Fat-D group): 25.000 | (Mean − Mean0)/Std0 (Wilcoxon rank sums, tail-flick latency) ([4]; Normal-D group): −0.139 | Score Mean (Wilcoxon rank sums, tail-flick latency) ([4]; Normal-D group): 9.600 | Score Sum (Wilcoxon rank sums, tail-flick latency) ([4]; Normal-D group): 48.000
